Experimental findings from patent US20120016009A1, “Optimized Methods For Delivery Of DSRNA Targeting The PCSK9 Gene” (priority 2008, published 2012) are described below.

What is called IC50 is the concentration needed to halve the response being measured. Read a low IC50 as higher potency.

In the oligonucleotide strings, read from the 5' end, every base follows the letter of its sugar. An asterisk marks phosphorothioate; unmarked linkages are phosphodiester. Other units and linkages are bracketed, terminal groups are in braces. A string of capitals states the bases alone. d = 2'-deoxy (DNA); m = 2'-O-methyl; r = 2'-OH (RNA)

The test system of the data set is PCSK9 mRNA. Put plainly: PCSK9 siRNA screening in HepG2 cells (lipofectamine 2000 transfection, PCSK9 mRNA by Quantigene, normalized to GAP-DH). Format: cell-based, human. The settings on record: for Mean percent remaining mRNA transcript at siRNA concentration/in cell type 3 nM/HepG2: 3 nM siRNA; for Mean percent remaining mRNA transcript at siRNA concentration/in cell type 30 nM/HepG2: 30 nM siRNA. An outline of the steps: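 PCSK9 silencing was assessed in HepG2 cells by lipofectamine 2000 siRNA transfection in 96-well plates. Twenty-four hours later, lysates were analyzed with the Quantigene Explore Kit, with PCSK9 signal normalized to GAP-DH. Eight datapoints were collected per siRNA, and remaining transcript was expressed as a percentage of cells treated with an unrelated control siRNA duplex.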

As to “AD-9597: PCSK9 siRNA (sense rArGrCrCrArArGrCrCrUrCrUrUrCrUrUrArCrUdT*dT; antisense rArGrUrArArGrArArGrArGrGrCrUrUrGrGrCrUdT*dT)”, the midpoint of inhibition, the IC50, lay at 0.04 nM; the “Mean percent remaining mRNA transcript at siRNA concentration/in cell type 3 nM/HepG2” value came out at 21%; the “Mean percent remaining mRNA transcript at siRNA concentration/in cell type 30 nM/HepG2” value worked out at 23%. Turning to “AD-9530: PCSK9 siRNA (sense rArCrCrGrGrGrCrGrGrArUrGrArArUrArCrCrAdT*dT; antisense rUrGrGrUrArUrUrCrArUrCrCrGrCrCrCrGrGrUdT*dT)”, the “Mean percent remaining mRNA transcript at siRNA concentration/in cell type 30 nM/HepG2” value was 75%.

For “AD-9758: PCSK9 siRNA (sense mCrArAmCmUmUmUrGrGmCmCrGmCmUrGmUrGmUrGdT*dT; antisense mCrAmCrAmCrArGrCrGrGrCmCrArArArGrUrUrGdT*dT)”, the “Mean percent remaining mRNA transcript at siRNA concentration/in cell type 30 nM/HepG2” value stood at 96%. “AD-9607: PCSK9 siRNA (sense rGrGrArGrCrUrGrGrUrGrCrUrArGrCrCrUrUrGdT*dT; antisense rCrArArGrGrCrUrArGrCrArCrCrArGrCrUrCrCdT*dT)”: the IC50 stood at 0.2 nM, the “Mean percent remaining mRNA transcript at siRNA concentration/in cell type 3 nM/HepG2” value was found to be 28% and the “Mean percent remaining mRNA transcript at siRNA concentration/in cell type 30 nM/HepG2” value was 32%. Turning to “AD-9522: PCSK9 siRNA (sense rArArGrGrArGrCrArUrGrGrArArUrCrCrCrGrGdT*dT; antisense rCrCrGrGrGrArUrUrCrCrArUrGrCrUrCrCrUrUdT*dT)”, the “Mean percent remaining mRNA transcript at siRNA concentration/in cell type 30 nM/HepG2” value is given as 59%. The same measure, in the same setting: in the case of “AD-9740: PCSK9 siRNA (sense rGrGmCrArAmCmUmUmCmCrGrGrGrAmCrGrAmUrGdT*dT; antisense mCrArUrCrGrUrCrCrCrGrGrArArGrUrUrGrCrCdT*dT)” it was 198%; in that of “AD-9698: PCSK9 siRNA (sense mCmCrArGrGmUrGmCmUrGmCmCmUrGmCmUrAmCmCdT*dT; antisense rGrGmUrArGmCrArGrGmCrArGmCrArCrCrUrGrGdT*dT)”, 73%. Turning to “AD-9757: PCSK9 siRNA (sense mCmUmCmUrGmCmCrArArArGrAmUrGmUmCrAmUmCdT*dT; antisense rGrArUrGrAmCrArUrCrUrUrUrGrGmCrArGrArGdT*dT)”, the “Mean percent remaining mRNA transcript at siRNA concentration/in cell type 30 nM/HepG2” value was determined as 78%. Still for that read-out and setting: then “AD-9628: PCSK9 siRNA (sense rUrUrCrUrCrUrGrCrCrArArArGrArUrGrUrCrAdT*dT; antisense rUrGrArCrArUrCrUrUrUrGrGrCrArGrArGrArAdT*dT)”, with 141%; and “AD-9716: PCSK9 siRNA (sense rAmCmCrArAmCmUmUmUrGrGmCmCrGmCmUrGmUrGdT*dT; antisense mCrAmCrArGrCrGrGrCmCrArArArGrUrUrGrGrUdT*dT)”, with 114%. On to “AD-9619: PCSK9 siRNA (sense rUrCrArGrGrArGrCrCrGrGrGrArCrGrUrCrArGdT*dT; antisense rCrUrGrArCrGrUrCrCrCrGrGrCrUrCrCrUrGrAdT*dT)”, for which the “Mean percent remaining mRNA transcript at siRNA concentration/in cell type 30 nM/HepG2” value is given as 61%. Also, the “Mean percent remaining mRNA transcript at siRNA concentration/in cell type 100 nM/HepG2” value (100 nM siRNA) was 42%. Turning to “AD-9519: PCSK9 siRNA (sense rCrCrCrArGrCrCrArGrGrArUrUrCrCrGrCrGrCdT*dT; antisense rGrCrGrCrGrGrArArUrCrCrUrGrGrCrUrGrGrGdT*dT)”, the “Mean percent remaining mRNA transcript at siRNA concentration/in cell type 30 nM/HepG2” value is on record as 78%. On the same count and under the same terms, then “AD-9709: PCSK9 siRNA (sense mCmCmCrAmUrGmUmCrGrAmCmUrAmCrAmUmCrGrAdT*dT; antisense rUrCrGrArUrGmUrArGrUrCrGrAmCrArUrGrGrGdT*dT)”, with 104%; and “AD-9741: PCSK9 siRNA (sense mUmUmCmCrGrGrGrAmCrGrAmUrGmCmCmUrGmCmCdT*dT; antisense rGrGmCrArGrGmCrArUrCrGrUrCrCrCrGrGrArAdT*dT)”, with 130%.
